Values quoted from earlier work, collected in patent US20130039995A1, “DERMATOLOGICAL COMPOSITIONS COMPRISING AT LEAST ONE REINOID COMPOUND, AN ANTI-IRRITANT COMPOUND AND BENZOYL PEROXIDE” (Galderma Research & Development, priority 2007, published 2013).

## O=C(OOC(=O)c1ccccc1)c1ccccc1 [benzoyl peroxide]
In solution in ethanol, propylene glycol and mixtures of PEG 400 and water, depends on type of solvent and its concentration
  degradation of benzoyl peroxide in solution: degrades more or less rapidly
In suspension (disperse form) in water and in propylene glycol, after 90 days of storage
  degradation of benzoyl peroxide in suspension on storage: not degraded
